# US20250325524A1, “COMPOSITIONS AND METHODS FOR TREATING RENAL INJURY” (CASE WESTERN RESERVE UNIVERSITY, priority 2018, published 2025)
# Key:
# [1] = system: mice with ischemic AKI; assay: renal ischemia-reperfusion injury model: renal function (serum creatinine, NGAL, KIM-1); format: in vivo; settings: IRI-30 min, 24 hours reperfusion
# Procedure: (§1) Mice were anesthetized with isoflurane using a vaporizer and placed on a heating pad to maintain their body temperature at 37° C. Both renal arteries were identified through dorsal incisions and clamped for 20, 30, 35, or 37 minutes. Reperfusion was confirmed visually upon release of the clamps. Surgical wounds were closed, and mice were administered 1 mL of saline i.p. The mice were kept in a warm incubator until they regained consciousness and were allowed to recover with ad libitum access to food and water. […] Serum and kidney tissue were collected 24 hours after renal IRI.
# Renal function was assessed by determining the serum levels of creatinine (KB02-H1; Arbor Assays), Lipocalin-2 (NGAL; MLCN20; R&D Systems), and kidney injury molecule-1 (KIM-1; MKM100; R&D Systems) after reperfusion for 24 h.
# [2] = system: mice with ischemic AKI; assay: survival and body weight over 7 days after renal IRI; format: in vivo; settings: bilateral IRI 30 minutes, 5 mg/kg i.p. once pre-IRI then twice daily for 7 days
# Procedure: (A) Experimental setup for toxicity. Ischemic AKI induced by bilaterally clamping the renal arteries for 30 minutes, followed by reperfusion. […] (n=10 per group). (B, C) Survival curves and body weight over 7 days. Kaplan-Meier analysis of survival stratified by AKI stage. Data are means±SEM. *P<0.05 vs. corresponding BI30_vehicle.
# [3] = chemical stability in aqueous solutions; format: physicochemical; settings: over broad pH range
# [4] = stability on incubation with hepatocyte cell lines; format: in vitro ADME
# [5] = system: HMGB1 and proinflammatory cytokines; assay: renal IRI model: HMGB1 and cytokine levels; format: in vivo; settings: mice
# Procedure: as §1
# Inflammatory cytokine mRNA and protein levels were measured by real-time PCR and ELISA, respectively. Kidney tissue and serum were harvested after reperfusion for 24 h. Total RNA was extracted from frozen kidney tissue using TRIzol reagent (15596018; Invitrogen), according to the manufacturer's protocol. RNA was converted to cDNA using oligo-dT primers. IL-17, TNF-α, and […] levels were determined by real-time PCR with SYBR green PCR Master Mix and the primers listed in Table 1. For ELISA, frozen kidney tissues were homogenized in phosphate buffer. Serum IL-17 (M1700; R&D Systems), TNF-α (MTAOOB; R&D Systems), and IL-10β (MLBOOC; R&D Systems) were measured using commercial ELISA kits according to the manufacturer's instructions.
# [6] = system: cAMP/AMP/adenosine signaling pathway; assay: renal IRI model: cAMP, AMP and adenosine levels; format: in vivo; settings: IRI mice
# Procedure: as §1
# After reperfusion for 24 hours, kidney tissues were harvested, homogenized in 10 volumes of 0.1 M HCl, and centrifuged for 10 minutes at 12,000 rpm. The protein concentration was determined by BCA assay. cAMP levels in kidney tissues were measured using a cAMP Complete ELISA Kit (ADI-900-163; Enzo Life Science) an adenosine Assay Kit (KA4547; abnova) and high-performance liquid chromatography (HPLC).
# [7] = system: PGE2 levels; assay: renal IRI model: time course of PGE2 in kidney tissue and serum; format: in vivo, mice
# Procedure: as §1
# (§2) […] Next, the kidney tissues (˜20 mg) were homogenized in 500 μL of cold PBS containing indomethacin (10 μg/mL) using a tissue homogenizer. The suspension was sonicated in an ice-water bath for 1 minute using cycles of 10 seconds of sonication with 10 seconds of cooling, and they were then centrifuged for 10 minutes at 12,000 rpm. The supernatant was collected for PGE2 assay. Protein concentrations were determined by BCA assay (23225; Thermo Scientific). The PGE2 level in the supernatant was measured using a PGE2 ELISA Kit (SKGE004B; R&D Systems) in triplicate. PGE2 levels were expressed as ng PGE2/mg protein.
# [8] = system: mice with ischemic AKI; assay: renal ischemia-reperfusion injury model: renal function (serum creatinine, NGAL, KIM-1); format: in vivo; settings: IRI mice, single pre-IRI dose
# [9] = system: mice; assay: toxicity after IP injection into mice
# [10] = system: endogenous PGE2 levels in kidney tissue; assay: endogenous PGE2 levels in kidney tissue after i.p. injection; format: in vivo; settings: mice
# Procedure: as §2
# [11] = stability on incubation with hepatocyte extracts; format: in vitro ADME
# [12] = system: PGE2 production by cell lines; assay: PGE2 production by cell lines; format: cell-based
# [13] = system: renal arterioles in the outer medulla; assay: renal vasodilatation in the outer medulla (α-SMA-positive arteriole area); format: in vivo, mice; settings: α-SMA staining
# Procedure: as §1
# To quantify vasodilation, the inner arteriole area of the outer medulla was determined using α-SMA-stained sections. After counterstaining with Mayer's hematoxylin, the inner area of α-SMA-positive vessels in the outer medulla (×25) was measured using ImageJ. The results are expressed as average areas of renal arteries outer medulla.
# [14] = system: PGE2 receptors (EP1, EP2, EP3 and EP4) and adenosine receptor (A2A); assay: renal IRI model: PGE2 receptors (EP1-EP4) and adenosine A2A receptor levels; format: in vivo, mice
# Procedure: as §1
# PGE2 receptors (EP1, EP2, EP3 and EP4) and adenosine receptor (A2A) mRNA levels were determined by real-time PCR with SYBR green PCR Master Mix and the primers listed in Table 1. Their protein levels were determined by western blotting assay and immunofluorescence analysis.
# [15] = 5 mg/kg 1 hour before, immediately after, and 12 hours after IRI, vs IRI-vehicle
# [16] = real-time PCR and ELISA, 3 doses 5 mg/kg
# [17] = real-time PCR at POD1, vs IRI-vehicle
# [18] = IRI mice, pretreatment, 0.5 hours, mRNA in kidney tissue
# [19] = kidney tissue, in comparison to sham and to IRI mice
smiles,measurement,setting,value
CCCC[S+]([O-])c1sc2nc(-c3cccs3)cc(-c3ccccc3)c2c1N (centres unmarked) [SW033291],serum KIM-1,[1]; [15],significantly reducing
same,serum NGAL,[1]; [15],significantly reducing
same,serum creatinine,[1]; [15],significantly reducing
same,"renal protection from IRI (serum NGAL, creatinine, KIM-1)",[1]; 3 doses of 5 mg/kg,markedly protected kidney from IRI
same,body weight at POD7,[2],regained greater weights than did vehicle treated mice
same,survival,[2],survived at 7 days
same,chemical stability in aqueous solutions,[3],chemically stable
same,chemical stability when incubated with hepatocyte cell lines,[4],chemically stable
same,IL-1B protein,"[5]; ELISA, 3 doses 5 mg/kg",reductions
same,reduction of HMGB1 protein level compared to the IRI-vehicle group,"[5]; kidney tissue, western blot, 3 doses 5 mg/kg",30%
same,induction of IL-17,[5]; [16],blockade of induction
same,induction of TNF-α,[5]; [16],blockade of induction
same,IL-24 mRNA,[5]; [17],significantly induces
same,anti-inflammatory cytokine IL-4 mRNA,[5]; [17],significantly induces
same,anti-inflammatory cytokine IL-10 mRNA,[5]; [17],significantly induces
same,levels of adenosine in the kidney,[6],increased
same,levels of serum adenosine,[6],significantly increased
same,AMP level in kidney tissue,[6]; decrease after IRI vs sham,substantially reversed
same,cAMP level in kidney tissue,[6]; decrease after IRI vs sham,substantially reversed
same,serum PGE2 level,"[7]; BI30 mice at 24 hours, prophylaxis",significantly decreased
same,post-IRI peaks of renal PGE2 at 0.5 and 14 hours,"[7]; IRI mice, single pre-IRI dose, kidney tissue",substantially block
same,renal PGE2 peak over baseline before IRI,"[7]; mice, single pre-IRI dose, kidney tissue",5.12 fold
same,induction of KIM-1 (time course),[8],notably effective blockade of induction
same,induction of creatinine (time course),[8],notably effective blockade of induction
same,reduction of peak induction of NGAL,[8]; peak at 12 hours,20%
same,toxicity,[9]; IP into mice at 0.3 μmole/per mouse twice daily for 21 days,no toxicity
same,immediate toxicity over 24 hours,[9]; IP into mice at 0.6 μmole/per mouse,no immediate toxicity
same,immediate toxicity over 24 hours,[9]; IP into mice at 1.2 μmole/per mouse,no immediate toxicity
same,"level of PGE2 in kidney tissue, time course","[10]; 5 mg/kg i.p., 1 and 3 hours",peaked at 1 hour at nearly twice as high as at baseline
same,endogenous PGE2 levels in kidney tissue,"[10]; 3 hours after i.p. 2.5 or 5 mg/kg, vs vehicle","in dose-dependent fashion, upregulated"
same,chemical stability when incubated with hepatocyte extracts,[11],chemically stable
same,PGE2 production by cell lines,[12],increase PGE2 production by cell lines
same,renal arteriole area in the outer medulla,[13]; IRI mice,significantly increased
same,renal arteriole area in the outer medulla,[13]; normal mice,increased
same,increase of A2A receptor over baseline,[14]; [18],1.6 fold
same,increase of EP4 receptor over baseline,[14]; [18],2.4 fold
same,EP1 receptor mRNA,"[14]; kidney tissue, IRI mice",without effecting
same,EP2 receptor mRNA,"[14]; kidney tissue, IRI mice",without effecting
same,EP3 receptor mRNA,"[14]; kidney tissue, IRI mice",without effecting
same,increase of EP4 receptor mRNA and protein levels,[14]; [19],up to 2.3 fold
same,levels of the adenosine A2A receptor protein,[14]; [19],induced
